Results reported in patent US5612474A, “Acid labile immunoconjugate intermediates” (Eli Lilly and Company, priority 1994, dated 1997).
Converted amounts (≈) assume the structure as drawn.

Key:
[1] = tested on: LS-174T human colon carcinoma; assay: Cytotoxicity assay of immunoconjugates, 3H-leucine uptake, 48 hours; type: cell-based; settings: LS174T, LS 174T cells, 48 hours incubation, concentrations in terms of drug contained in conjugate
Excerpt: Table III uses several abbreviations which are defined as follows. The terms D612, COL-1, CC83, and CC49 refer to specific murine monoclonal antibodies which are described in detail in the Antibody section of the Detailed Description. […] "CR#" is an abbreviation for conjugation ratio. "MIR" refers to the molar input ratio of the linker-drug relative to the antibody.

CCRF-CEM cells = assay: In vitro antitumor activity / growth inhibition of CCRF-CEM cells, 72 hours; type: cell-based; settings: Homo sapiens, serum-free UltraCHO media, read-out: IC50 (50% inhibition of growth)
Method: The in vitro data were obtained using CCRF-CEM cells, a human leukemia cell line. Foley et al., Cancer, 18:522 (1965). These cells were grown in albumin-free UltraCHO® media (BioWhittaker, Inc., Walkersville, Md.) using standard techniques. See, e.g., G. B. Grindey, et al., Journal of Molecular Pharmacology, 16:601 (1979). Dose-response curves were generated for various compounds to determine the concentration required for 50% inhibition of growth (IC50). Cluster plates were prepared in duplicate with the compound at various concentrations. Test compounds were dissolved initially in DMSO at a concentration of 4 mg/ml and further diluted with solvent to the desired concentration. Cells in serum-free UltraCHO media were added to the well at a final concentration of 4.8×10^4 cells/well in a total volume of 2.0 ml. After 72 hours of incubation (95% air, 5% CO2), cell numbers were determined on a ZBI Coulter counter. Cell number for indicated controls at the end of incubation was usually (4-6)×10^5 cells/well. Cell viability was also measured by staining with 3-[4,5-dimethylthiazol-2-yl]-2,5-diphenyl-tetrazolium bromide (MTT) using standard techniques. R. I. Freshhey, Culture of Animal Cells: A Manual of Basic Technique, 253-354 (2d ed. 1987).
Column 1 refers to the example number of the compound tested; Column 2 depicts the in vitro cytoxicity against CCRF-CEM cells by relating the concentration of the test compound required for 50% inhibition of growth (IC50) of the cells in the well.

[2] = tested on: HC-1 human colon carcinoma xenograft; assay: Antitumor activity against HC-1 human colon carcinoma xenografts in nude mice; type: in vivo, human tumor in CD1 Nu/Nu mice; settings: for Activity (overall): overall activity over all doses
Excerpt: One of the tumor models used for showing the anti-neoplastic activity of the prodrugs of this invention were the human colon xenografts, HC-1 human colon xenograft. This tumor model was obtained from the Division of Cancer Treatment, National Cancer Institute, Tumor Bank.
First passage tumors were stored in liquid nitrogen, using standard techniques. The transplanted tumor was reestablished from the Tumor Bank every six months or as needed. The tumor was maintained by serial passage twice weekly in nude mice.
In the procedures utilized here, the tumor was removed from passage animals and minced into 1- to 3-mm cubic fragments using sterile techniques. Tumor pieces were checked for sterility using both Antibiotic Medium 1 and Brain Heart Infusion (Difco, Detroit, Mich.). The xenograft tumor pieces were implanted into the recipient CD1 Nu/Nu mice subcutaneously in an axillary site by trochar.
Drug therapy on the appropriate schedule was initiated 14 days after tumor implantation for the mice bearing the xenograft tumors. The compound being tested was mixed with 2.5% Emulphor EL620 from GAP Corporation (1:40 dilution in 0.9% saline). The total dosage volume for each administration was 0.5 ml. All animals were weighed at the beginning and end of administration of the subject compounds. Food and water were provided ad libitum.
Each control group and each dosage level of the treated groups consisted of 9 or 10 mice selected at random from the pool of implanted animals. The formulations were administered intraperitoneally. Compounds were dosed on days 1, 4, 7, and 10 for all prodrugs except for MMeT which was dosed on days 1,5, and 9.
The tumor was measured five days after treatment ended with two dimensional measurements (width and length) of the tumor taken using digital electronic calipers interfaced to a microcomputer. J. P. Worzalla, et al., Investigational New Drugs, 8:241-251 (1990). Tumor weights were calculated from these measurements using the following formula: [formula] At least one control group of an equal number of mice was treated with the same volume of 2.5% Emulphor only. The percent inhibition is determined by subtracting the ratio of the mean tumor size of the test group relative to the control group from one and multiplying the result by 100.
The results of several experiments in mice bearing the HC-1 human colon carcinoma when the Formula III compounds were administered orally are provided in Table V. Row 1 describes the particular compound being tested. Row 15 describes the overall activity of the compound. Column 1 gives the dosage level of the compound of Formula III and ADDFA in mg/kg. The second column gives the percent inhibition of tumor growth by the ADDFA given systemically. Colums 3 through 7 gives the percent inhibition of tumor growth of the compounds of Formula III.

[3] = Cardiotoxicity / toxicity of free drug versus trityl prodrug (no method described); settings: for use in oncolytic therapy
[4] = Release studies: rate of free drug release from isopropylamide linker-drug by NMR; type: physicochemical
Method: The isopropylamide linker-drug (2 mg) was dissolved in 0.3 ml of dry deuterated methanol (CD3 OD). A solution of potassium phosphate buffer in deuteratured water (D2 O) (0.2 ml) of appropriate pH was added. The resulting solution was transferred to an NMR tube and heated at 37° C. and NMR spectra were recorded periodically. The rate of appearance of free drug and the rate of disappearance of the starting material were calculated from the peak integrals at: […]
NMR spectra (CD3 OD/0.1M KD2 PO4)

[5] = pH 5.40, CD3OD/0.1M KD2PO4, 37° C.
[6] = pH 6.40, CD3OD/0.1M KD2PO4, 37° C.
[7] = pH 7.40, CD3OD/0.1M KD2PO4, 37° C., extrapolated

For `Nc1nc(N)c2ncn([C@@H]3O[C@H](CO)[C@@H](O)C3(F)F)c2n1` [ADDFA, 2-Amino-2'-deoxy-2',2'-difluoroadenosine, reference compound], the IC50 [1] was 0.26 µg/mL (≈ 0.86 µM), the IC50 (CCRF-CEM cells) was 0.024 µg/mL (≈ 0.0794 µM) and the “Percent Inhibition” value ([2]; 17.5 mg/kg) was 100%. For the same compound, the “Percent Inhibition” value ([2]; 20.0 mg/kg) was 100%, the “Percent Inhibition” value ([2]; 25.0 mg/kg) was 100% and the “Percent Inhibition” value ([2]; 32.5 mg/kg) was 100%. For the same compound, the “Percent Inhibition” value ([2]; 35.0 mg/kg) was 100%, the “Percent Inhibition” value ([2]; 40.0 mg/kg) was 100% and the “Percent Inhibition” value ([2]; 50.0 mg/kg) was 100%. The “Percent Inhibition” value ([2]; 65.0 mg/kg) was 100%, the “Percent Inhibition” value ([2]; 70.0 mg/kg) was 100% and the “Percent Inhibition” value ([2]; 80.0 mg/kg) was 100%. The “Percent Inhibition” value ([2]; 100.0 mg/kg) was 100%, the “Percent Inhibition” value ([2]; 130.0 mg/kg) was 100% and the “Activity (overall)” value [2] was “+++ (95-100% Inhibition)”. The cardiotoxicity [3] was “too much cardiotoxicity”.

`COc1ccc(C(Nc2nc(N)nc3c2ncn3[C@@H]2O[C@H](CO)[C@@H](O)C2(F)F)(c2ccc(OC)cc2)c2ccc(C(=O)NC(C)C)cc2)cc1` [DMT, N-Isopropyl-4-[bis-(4-methoxyphenyl)-6-N-[2-amino-9-(2'-deoxy-2',2'-difluoro-β-ribofuranosyl)purinyl]methyl]benzamide] showed a t1/2 [4, 5] of 3.71 h, a t1/2 [4, 6] of 14.8 h and a t1/2 ([4]; pH 7.40, CD3OD/0.1M KD2PO4, 37° C.) of 146.3 h. For the same compound, the IC50 (CCRF-CEM cells) was 0.078 µg/mL (≈ 0.113 µM), the “Percent Inhibition” value ([2]; 25.0 mg/kg) was 97% and the “Percent Inhibition” value ([2]; 50.0 mg/kg) was 99%. The “Percent Inhibition” value ([2]; 100.0 mg/kg) was 99% and the “Activity (overall)” value [2] was “+++ (95-100% Inhibition)”.

With `COc1ccc(C(Nc2nc(N)nc3c2ncn3[C@@H]2O[C@H](CO)[C@@H](O)C2(F)F)(c2ccccc2)c2ccc(C(=O)NC(C)C)cc2)cc1` (stereo partly shown) [MMT] the t1/2 [4, 5] was 16.7 h, the t1/2 ([4]; pH 6.40, CD3OD/0.1M KD2PO4, 37° C., extrapolated) was 547 h and the t1/2 [4, 7] was 800 h. For the same compound, the IC50 (CCRF-CEM cells) was 0.1 µg/mL (≈ 0.152 µM), the “Percent Inhibition” value ([2]; 32.5 mg/kg) was 95% and the “Percent Inhibition” value ([2]; 65.0 mg/kg) was 96%. The “Percent Inhibition” value ([2]; 130.0 mg/kg) was 93% and the “Activity (overall)” value [2] was “+++ (95-100% Inhibition)”.

In the case of `COc1ccc(C(Nc2nc(N)nc3c2ncn3[C@@H]2O[C@H](CO)[C@@H](O)C2(F)F)(c2ccc(C)cc2)c2ccc(C(=O)NC(C)C)cc2)cc1` (stereo partly drawn) [MMeT, N-Isopropyl-4-[4-methoxyphenyl-4'methylphenyl-6-N-[2-amino-9-(2'-deoxy-2',2'-difluoro-β-ribofuranosyl)purinyl]methyl]benzamide], the IC50 (CCRF-CEM cells) is reported as 0.1 µg/mL (≈ 0.148 µM), the “Percent Inhibition” value ([2]; 20.0 mg/kg) is reported as 95% and the “Percent Inhibition” value ([2]; 40.0 mg/kg) is reported as 98%. For the same compound, the “Percent Inhibition” value ([2]; 80.0 mg/kg) was 98% and the “Activity (overall)” value [2] was “+++ (95-100% Inhibition)”.

For `Cc1ccc(C(Nc2nc(N)nc3c2ncn3[C@@H]2O[C@H](CO)[C@@H](O)C2(F)F)(c2ccccc2)c2ccc(C(=O)NC(C)C)cc2)cc1` (stereo partly shown) [MeT], the IC50 (CCRF-CEM cells) was 0.8 µg/mL (≈ 1.24 µM), the “Percent Inhibition” value ([2]; 20.0 mg/kg) was 41% and the “Percent Inhibition” value ([2]; 40.0 mg/kg) was 58%. For the same compound, the “Percent Inhibition” value ([2]; 80.0 mg/kg) was 92% and the “Activity (overall)” value [2] was “++ (80-94% Inhibition)”.

In the case of `CC(C)NC(=O)c1ccc(C(Nc2nc(N)nc3c2ncn3[C@@H]2O[C@H](CO)[C@@H](O)C2(F)F)(c2ccccc2)c2ccccc2)cc1` [T, N-Isopropyl-4-[bis-phenyl-6-N-[2-amino-9-(2'-deoxy-2',2'-difluoro-β-ribofuranosyl)purinyl]methyl]benzamide], the “fragmentation under pH conditions used” value ([4]; pH 5.40, 6.40, 7.40, up to t = 800) is reported as “no fragmentation”, the IC50 (CCRF-CEM cells) is reported as 1.7 µg/mL (≈ 2.7 µM) and the “Percent Inhibition” value ([2]; 17.5 mg/kg) is reported as 14%. For the same compound, the “Percent Inhibition” value ([2]; 35.0 mg/kg) was 28%, the “Percent Inhibition” value ([2]; 70.0 mg/kg) was 04% and the “Activity (overall)” value [2] was “- (<60% Inhibition)”.

In the case of `COc1ccc(C(Nc2nc(N)nc3c2ncn3[C@@H]2O[C@H](CO)[C@@H](O)C2(F)F)(c2ccc(OC)cc2)c2cccc(C(=O)NC(C)C)c2)cc1` [mDMT, N-Isopropyl-3-[bis-(4-methoxyphenyl)-6-N-[2-amino-9-(2'-deoxy-2',2'-difluoro-β-ribofuranosyl)purinyl]methyl]benzamide], the t1/2 [4, 5] is reported as 2.35 h, the t1/2 [4, 6] is reported as 23.3 h and the t1/2 [4, 7] is reported as 133.3 h. For the same compound, the IC50 (CCRF-CEM cells) was 0.084 µg/mL (≈ 0.122 µM).
